Activity calls are given as the source filed them. The calls are words filed in the database; no cut-off is given here.
Legend:
[1] = target: Sodium-dependent noradrenaline transporter (Homo sapiens, UniProt P23975); experiment: Inhibition of NET
[2] = target: Sodium-dependent serotonin transporter (Homo sapiens, UniProt P31645); experiment: Inhibition of serotonin transporter
Cytochrome P450 2D6 = Cytochrome P450 2D6 (Homo sapiens, UniProt P10635); experiment: Inhibition of CYP2D6; assay type: ADME
[3] = target: Voltage-gated inwardly rectifying potassium channel KCNH2 (Homo sapiens, UniProt Q12809); experiment: Inhibition of human ERG
Hepatocyte [4] = experiment: Metabolic stability in human hepatocytes assessed as per 10^6 cells; assay type: ADME, cell-based
[5] = Metabolic stability in human microsomes assessed as per mg of tissue; assay type: ADME, Microsome
[6] = Clearance in iv dosed rat; assay type: ADME, organism-based; details: in vivo
[7] = Volume of distribution at steady state in iv dosed rat; assay type: ADME, organism-based; details: in vivo, read-out: Vdss
[8] = Half life in iv dosed rat; assay type: ADME, organism-based; details: in vivo
[9] = Oral bioavailability in rat; assay type: ADME, organism-based; details: in vivo
[10] = Lipophilicity, log D of the compound; assay type: physicochemical; details: octanol/water
Hepatocyte [11] = experiment: Metabolic stability in rat hepatocytes assessed as per 10^6 cells; assay type: ADME, cell-based
Homo sapiens = species on record: Homo sapiens; experiment: Selectivity ratio of IC50 for human recombinant iNOS to IC50 for human recombinant eNOS
[12] = target: T1, Nitric oxide synthase, inducible (Homo sapiens, UniProt P35228); experiment: Inhibition of human recombinant iNOS
[13] = target: T1, Nitric oxide synthase, inducible; experiment: Inhibition of iNOS in intact human DLD1 cells assessed as nitric oxide production; assay type: cell-based, DLD-1
Rattus norvegicus [14] = experiment: Analgesic activity in Dark Agouti rat collagen-induced arthritis model at 75 umol/kg bid; assay type: functional, organism-based
Rattus norvegicus [15] = experiment: Analgesic activity in Dark Agouti rat collagen-induced arthritis model assessed as reduction in inflammation at 75 umol/kg bid by histological analysis; assay type: functional, organism-based
Rattus norvegicus [16] = experiment: Analgesic activity in Dark Agouti rat collagen-induced arthritis model assessed as reduction in erosion scores at 75 umol/kg bid by histological analysis; assay type: functional, organism-based

Chain of Voltage-gated inwardly rectifying potassium channel KCNH2 (Q12809 whole entry): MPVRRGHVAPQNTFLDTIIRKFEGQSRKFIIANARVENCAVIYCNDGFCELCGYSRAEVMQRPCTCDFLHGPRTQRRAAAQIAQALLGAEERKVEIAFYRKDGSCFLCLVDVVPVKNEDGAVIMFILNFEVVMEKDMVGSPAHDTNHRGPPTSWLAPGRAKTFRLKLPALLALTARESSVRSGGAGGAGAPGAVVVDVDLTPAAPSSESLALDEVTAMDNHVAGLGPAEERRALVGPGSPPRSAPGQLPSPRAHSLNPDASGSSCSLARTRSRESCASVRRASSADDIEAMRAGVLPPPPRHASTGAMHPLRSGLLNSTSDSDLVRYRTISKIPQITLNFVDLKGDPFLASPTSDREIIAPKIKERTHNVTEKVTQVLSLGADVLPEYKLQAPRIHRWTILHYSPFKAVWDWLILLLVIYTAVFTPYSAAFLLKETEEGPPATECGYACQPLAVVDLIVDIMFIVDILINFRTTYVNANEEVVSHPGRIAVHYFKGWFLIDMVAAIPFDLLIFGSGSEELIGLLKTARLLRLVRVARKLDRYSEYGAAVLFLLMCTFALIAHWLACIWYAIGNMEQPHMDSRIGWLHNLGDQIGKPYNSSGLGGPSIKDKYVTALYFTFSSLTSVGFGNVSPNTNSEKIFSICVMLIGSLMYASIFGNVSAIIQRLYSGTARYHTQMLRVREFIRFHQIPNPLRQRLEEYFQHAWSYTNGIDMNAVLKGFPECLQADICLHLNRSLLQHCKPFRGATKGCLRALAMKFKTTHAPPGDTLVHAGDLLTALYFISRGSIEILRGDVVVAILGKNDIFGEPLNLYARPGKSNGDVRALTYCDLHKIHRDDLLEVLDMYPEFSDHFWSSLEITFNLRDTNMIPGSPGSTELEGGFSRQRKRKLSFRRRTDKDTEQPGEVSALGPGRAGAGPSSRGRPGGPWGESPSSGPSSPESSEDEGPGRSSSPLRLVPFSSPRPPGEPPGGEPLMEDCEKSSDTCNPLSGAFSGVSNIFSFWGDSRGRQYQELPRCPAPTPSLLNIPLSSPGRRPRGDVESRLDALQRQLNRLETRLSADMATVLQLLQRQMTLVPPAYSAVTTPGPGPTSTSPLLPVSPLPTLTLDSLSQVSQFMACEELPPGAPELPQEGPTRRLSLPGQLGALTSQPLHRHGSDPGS
T1 sequence (P35228 whole entry): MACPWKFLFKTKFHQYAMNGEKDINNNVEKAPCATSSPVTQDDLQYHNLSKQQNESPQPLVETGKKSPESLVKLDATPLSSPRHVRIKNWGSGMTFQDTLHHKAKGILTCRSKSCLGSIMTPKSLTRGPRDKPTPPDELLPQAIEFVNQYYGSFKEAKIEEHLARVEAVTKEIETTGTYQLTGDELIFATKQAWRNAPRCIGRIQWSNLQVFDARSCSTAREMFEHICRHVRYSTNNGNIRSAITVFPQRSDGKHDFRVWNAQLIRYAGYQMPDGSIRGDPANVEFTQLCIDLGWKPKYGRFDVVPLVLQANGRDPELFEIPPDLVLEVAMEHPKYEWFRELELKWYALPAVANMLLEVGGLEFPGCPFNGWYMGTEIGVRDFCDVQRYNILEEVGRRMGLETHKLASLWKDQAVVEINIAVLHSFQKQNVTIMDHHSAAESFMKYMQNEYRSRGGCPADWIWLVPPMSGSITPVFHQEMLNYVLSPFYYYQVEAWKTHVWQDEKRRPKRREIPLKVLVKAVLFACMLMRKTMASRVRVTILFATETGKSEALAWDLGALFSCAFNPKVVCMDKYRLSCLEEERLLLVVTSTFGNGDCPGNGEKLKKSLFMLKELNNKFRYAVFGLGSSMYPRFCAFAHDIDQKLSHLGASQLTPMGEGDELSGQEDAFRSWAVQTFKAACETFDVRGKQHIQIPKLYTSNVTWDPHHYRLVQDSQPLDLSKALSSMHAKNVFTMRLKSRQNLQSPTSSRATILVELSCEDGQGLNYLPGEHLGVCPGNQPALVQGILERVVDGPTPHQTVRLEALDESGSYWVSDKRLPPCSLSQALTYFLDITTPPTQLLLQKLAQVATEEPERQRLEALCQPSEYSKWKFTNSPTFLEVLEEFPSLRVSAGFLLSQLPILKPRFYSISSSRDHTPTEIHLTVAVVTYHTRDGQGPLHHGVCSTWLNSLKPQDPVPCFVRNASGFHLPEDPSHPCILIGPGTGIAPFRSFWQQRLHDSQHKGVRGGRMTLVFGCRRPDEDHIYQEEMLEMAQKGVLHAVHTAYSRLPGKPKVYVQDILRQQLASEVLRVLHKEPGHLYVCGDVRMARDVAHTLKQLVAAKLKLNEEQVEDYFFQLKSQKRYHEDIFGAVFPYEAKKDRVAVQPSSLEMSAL
Chain of Cytochrome P450 2D6 (P10635 whole entry): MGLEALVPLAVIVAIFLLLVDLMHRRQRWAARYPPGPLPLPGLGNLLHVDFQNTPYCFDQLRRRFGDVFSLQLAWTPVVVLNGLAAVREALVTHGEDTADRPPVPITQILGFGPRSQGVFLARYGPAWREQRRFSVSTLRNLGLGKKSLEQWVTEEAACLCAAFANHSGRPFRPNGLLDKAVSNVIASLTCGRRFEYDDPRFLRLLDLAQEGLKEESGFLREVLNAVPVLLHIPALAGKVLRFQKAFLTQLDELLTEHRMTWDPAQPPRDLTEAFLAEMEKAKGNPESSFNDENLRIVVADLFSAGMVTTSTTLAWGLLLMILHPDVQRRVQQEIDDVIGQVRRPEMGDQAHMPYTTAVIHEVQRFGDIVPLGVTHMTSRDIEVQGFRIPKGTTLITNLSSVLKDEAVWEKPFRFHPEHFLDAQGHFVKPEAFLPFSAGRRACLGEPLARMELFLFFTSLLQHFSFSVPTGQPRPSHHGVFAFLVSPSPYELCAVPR
Chain of Sodium-dependent noradrenaline transporter (P23975 whole entry): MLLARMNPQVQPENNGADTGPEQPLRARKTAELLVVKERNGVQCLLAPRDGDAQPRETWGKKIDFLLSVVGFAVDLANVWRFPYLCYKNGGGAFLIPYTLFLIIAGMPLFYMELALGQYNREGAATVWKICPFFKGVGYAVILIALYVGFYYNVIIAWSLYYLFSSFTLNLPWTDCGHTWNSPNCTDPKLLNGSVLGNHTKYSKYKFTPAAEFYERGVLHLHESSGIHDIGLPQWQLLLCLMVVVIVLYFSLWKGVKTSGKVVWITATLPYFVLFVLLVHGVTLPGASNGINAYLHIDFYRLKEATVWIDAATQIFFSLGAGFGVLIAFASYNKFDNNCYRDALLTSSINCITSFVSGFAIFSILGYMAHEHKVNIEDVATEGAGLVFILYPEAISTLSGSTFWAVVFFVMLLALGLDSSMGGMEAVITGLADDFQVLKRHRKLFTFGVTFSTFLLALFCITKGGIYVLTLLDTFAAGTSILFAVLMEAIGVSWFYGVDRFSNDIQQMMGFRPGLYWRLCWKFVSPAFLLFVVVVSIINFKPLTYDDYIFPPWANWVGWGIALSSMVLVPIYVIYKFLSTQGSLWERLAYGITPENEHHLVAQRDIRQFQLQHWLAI
Chain of Sodium-dependent serotonin transporter (P31645 whole entry): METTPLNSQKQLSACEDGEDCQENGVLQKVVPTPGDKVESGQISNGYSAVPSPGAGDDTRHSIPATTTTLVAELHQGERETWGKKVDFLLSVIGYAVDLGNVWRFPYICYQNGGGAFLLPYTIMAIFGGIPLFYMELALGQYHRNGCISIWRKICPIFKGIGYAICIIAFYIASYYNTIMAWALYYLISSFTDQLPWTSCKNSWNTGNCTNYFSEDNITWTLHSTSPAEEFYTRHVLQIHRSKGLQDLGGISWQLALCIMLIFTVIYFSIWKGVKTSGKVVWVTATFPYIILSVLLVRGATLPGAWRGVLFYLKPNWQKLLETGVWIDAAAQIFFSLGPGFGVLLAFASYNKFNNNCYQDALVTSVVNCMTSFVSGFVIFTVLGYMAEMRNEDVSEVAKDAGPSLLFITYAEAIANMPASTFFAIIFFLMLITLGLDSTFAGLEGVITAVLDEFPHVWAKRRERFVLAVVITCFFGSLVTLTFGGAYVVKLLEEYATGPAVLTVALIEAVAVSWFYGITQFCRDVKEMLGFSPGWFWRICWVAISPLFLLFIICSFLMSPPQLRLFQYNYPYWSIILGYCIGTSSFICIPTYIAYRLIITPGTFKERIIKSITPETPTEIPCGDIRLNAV

SMILES	logD [10]	Ratio IC50 (Homo sapiens)	IC50 [12]	IC50 ([1]; read-out: IC50)	IC50 ([2]; read-out: IC50)	IC50 (Cytochrome P450 2D6; read-out: IC50)	IC50 ([13]; read-out: IC50)	IC50 [3]	further results
N#Cc1ccc(Cl)cc1S[C@H](CCN)c1ccccc1.O=C(O)/C=C/C(=O)O			4 nM	17000 nM	6700 nM	4100 nM	[…]	Not Active	
N#Cc1cc(F)c(Cl)cc1O[C@H](CCN)c1ccccc1.O=C(O)C(=O)O	0.8	> 10000	6 nM	16000 nM	4400 nM	340 nM	700 nM		IC50 ([3]; read-out: IC50): > 10000 nM; Stability (Hepatocyte [4]): < 1 µL/min; Stability [5]: 6 µL/min; clearance [6]: 49 mL/min/kg; Vd [7]: 13 L/kg; half-life [8]: 4.3 h; bioavailability [9]: 57%; Activity (Rattus norvegicus [14]): Active; Activity (Rattus norvegicus [15]): Active; Activity (Rattus norvegicus [16]): Active; Stability (Hepatocyte [11]): 8.9 µL/min
CNCC[C@@H](Oc1cc(OC)ccc1C#N)c1ccccc1.O=C(O)C(=O)O	0.9		110 nM	12000 nM	5700 nM	300 nM	9500 nM	Not Active	
Cc1ccc(C#N)c(S[C@H](CCN)c2ccccc2)n1.O=C(O)/C=C/C(=O)O	0.7	> 10000	4 nM	7400 nM	2600 nM	5000 nM	600 nM	Not Active	
N#Cc1ccc(C(F)(F)F)nc1O[C@H](CCN)c1ccno1.O=C(O)C(=O)O	-0.5		5.4 nM	> 100000 nM	70000 nM	> 14000 nM	720 nM		IC50 ([3]; read-out: IC50): > 10000 nM; Vd [7]: 3.4 L/kg; bioavailability [9]: 49%
CNCC[C@@H](Oc1cc(Cl)ccc1C#N)c1ccccc1.Cl	1.7		9 nM	500 nM	4500 nM	1000 nM	700 nM		Stability (Hepatocyte [4]): 1.4 µL/min; Stability [5]: 4 µL/min; clearance [6]: 94 mL/min/kg; Vd [7]: 6.6 L/kg; half-life [8]: 1.3 h; Stability (Hepatocyte [11]): 54 µL/min

Second part, led by results:

logD [10]	Ratio IC50 (Homo sapiens)	IC50 [12]	IC50 ([1]; read-out: IC50)	IC50 ([2]; read-out: IC50)	IC50 (Cytochrome P450 2D6; read-out: IC50)	IC50 ([13]; read-out: IC50)	SMILES	IC50 [3]	further results
0.79							N#Cc1ccc(C(=O)N2CCC3(CC2)N=C(N)c2c(F)ccc(F)c2N3)cn1		IC50 [1]: Not Active; IC50 [2]: Not Active; IC50 (Cytochrome P450 2D6): Not Active; IC50 ([3]; read-out: IC50): 100 nM; Stability (Hepatocyte [4]): < 3 µL/min; Stability [5]: Unstable; clearance [6]: 57 mL/min/kg; Vd [7]: 4.5 L/kg; half-life [8]: 1.1 h; bioavailability [9]: 75%; Stability (Hepatocyte [11]): 5 µL/min
	12	790 nM					Cc1ccnc(NCc2ccccc2)c1		
1.3	1400	71 nM	28000 nM	10000 nM	1600 nM	2700 nM	CNCC[C@@H](Oc1cc(C(F)(F)F)ccc1C#N)c1ccccc1.Cl	Not Active	
0.4	170	51 nM	7100 nM	44000 nM	400 nM	3600 nM	CCC(CCNC)Oc1cc(Cl)ccc1C#N.Cl (racemic)	Not Active	
0.9	100	960 nM					N#Cc1cc(Cl)ccc1O[C@H](CCN)c1ccccc1.O=C(O)/C=C/C(=O)O	Not Active	IC50 [1]: Not Active; IC50 [2]: Not Active; IC50 (Cytochrome P450 2D6): Not Active; IC50 ([13]; dld-1): Not Active
	> 53	1900 nM					NCC(Oc1cc(Cl)ccc1Cl)c1ccccc1 (stereo not drawn)	Not Active	IC50 [1]: Not Active; IC50 [2]: Not Active; IC50 (Cytochrome P450 2D6): Not Active; IC50 ([13]; dld-1): Not Active
0.8	> 10000	4 nM	15000 nM	2100 nM	400 nM	900 nM	N#Cc1ccc(Cl)cc1O[C@H](CCN)c1ccccc1.O=C(O)C(=O)O	Not Active	
	> 4500	22 nM				8700 nM	CNCC[C@@H](Oc1cc(Cl)ccc1Cl)c1ccccc1.O=C(O)/C=C/C(=O)O	Not Active	IC50 (Cytochrome P450 2D6): Not Active

— ChEMBL document CHEMBL1759901 (Bioorg Med Chem Lett, 2011)
